Where “and” joins values, the source holds several entries; their conditions need not be identical. Identical values can stand only once. Like-named read-outs stand apart in the source and are kept apart here.
Key:
AMPA receptors [1] = assay: AMPA ES Cell FLIPR Screen, G7330A (single dose % effect); assay type: cell-based, murine; conditions: Dose 32.0 uM; mean (range and n in cells below); ES cell-derived neurons, 32 uM AMPA challenge; negative control AMPA alone, positive control AMPA plus cyclothiazide
Description: (§1) The murine ES cell line used was E14-Sx1-16C, which has a targeted mutation in the Sox1 gene, a neuroectodermal marker, that offers G418 resistance when the Sox1 gene is expressed (Stem Cell Sciences). ES cells were maintained undifferentiated as previously described (Roach). […] ES cells were plated on gelatin-coated dishes (BD Biosciences), the media was changed daily and the cells were dissociated with 0.05% Trypsin EDTA (Invitrogen) every other day.
(§2) Embryoid Body Formation: Prior to embryoid body (EB) formation the ES cells were weaned from FBS onto Knockout Serum Replacement (KSR) (Invitrogen). To form EBs, ES cells were dissociated into a single cell suspension then 3×10^6 cells were plated in bacteriology dishes (Nunc 4014) and grown as a suspension culture in NeuroEB-I medium that consisted of Knockout™ D-MEM (Invitrogen), supplemented with 10% KSR (Invitrogen), 0.2 mM L-Glutamine (Invitrogen), 0.1 mM MEM non-essential amino acids (Invitrogen), 30 μg/ml Gentamicin (Invitrogen), 1000 u/ml ESGRO (Chemicon), 0.1 mM 2-Mercaptoethanl (Sigma) and 150 ng/ml Transferrin (Invitrogen). The plates were put on a Stovall Belly Button shaker in an atmospheric oxygen incubator. The media was changed on day 2 of EB formation with NeuroEB-I and on day 4 with NeuroEB-II (NeuroEB-I plus 1 μg/ml mNoggin [R&D Systems]).
(§3) Neuronal Precursor Selection and Expansion: On day 5 of EB formation, EBs were dissociated with 0.05% Trypsin EDTA, and 4×10^6 cells/100 mm dish were plated on Laminin coated tissue culture dishes in NeuroII-G418 medium that consisted of a base medium of a 1:1 mixture of D-MEM/F12 supplemented with N2 supplements and NeuroBasal Medium supplemented with B27 supplement and 0.1 mM L-Glutamine (all from Invitrogen). The base medium was then supplemented with 10 ng/ml bFGF (Invitrogen), 1 μg/ml mNoggin, 500 ng/ml SHH-N, 100 ng/ml FGF-8b (R&D Systems), 1 μg/ml Laminin and 200 μg/ml G418 (Invitrogen) for selection of neuronal precursors expressing Sox-1. The plates were put in an incubator that contained 2% Oxygen and were maintained in these conditions. During the 6-day selection period, the NeuroII media was changed daily. On day 6, the surviving neuronal precursor foci were dissociated with 0.05% Trypsin EDTA and the cells were plated at a density of 1.5×10^6 cells/100 mm Laminin coated dish in NeuroII-G418 medium. The cells were dissociated every other day for expansion, and prepared for Cryopreservation at passage 3 or 4. The cryopreservation medium contained 50% KSR, 10% Dimethyl Sulfoxide (DMSO) (Sigma) and 40% NeuroI-G418I medium. Neuronas precursors were crypreserved at a concentration of 4×10^6cells/ml and 1 ml/cryovial in a controlled rate freezer overnight then transferred to an ultra-low freezer or liquid nitrogen for long-term storage,
(§4) Neuronal Differentiation: Cryopreserved ES cell-derived neuronal precursors were thawed by the rapid thaw method in a 37-degree water-bath. The cells were transferred from the cryovial to a 100 mm Laminin coated tissue culture dish that already contained NeuroII-G418 that had been equilibrated in a 2% Oxygen incubator. The media was changed with fresh NeuroII-G418 the next day. The cells were dissociated every other day as described above for expansion to generate enough cells to plate for the screen. For the screen, the cells were plated into 384-well poly-d-lysine coated tissue culture dishes (BD Biosciences) by the automated SelecT at a cell density of 6K cells/well in differentiation medium NeuroIII that contained a 4:1 ratio of the NeuroBasalMedium/B27:D-MEM/F12/N2 supplemented with 1 μM cAMP (Sigma), 200 μM Ascorbic Acid (Sigma), 1 μg/ml Laminin (Invitrogen) and 10 ng/ml BDNF (R&D Systems). The plates were put in an incubator with 2% Oxygen and allowed to complete the differentiation process for 7 days. The cells could then be used over a 5-day period for the high throughput screen.
(§5) Procedure for AMPA ES Cell FLIPR Screen […]

AMPA receptors [2] = assay: AMPA ES Cell FLIPR Screen, G7330B (EC50 and % effect); assay type: cell-based, murine; conditions: for EC50: ES cell-derived neurons, 32 uM AMPA challenge
Description: as §1, §2, §3, §4, §5

[3] = Dose 32.0 uM, individual determinations
[4] = individual determinations, read-out: G7330B (U): EC50
[5] = mean of individual determinations (range and n in cells below), read-out: G7330B mean EC50

Structure (SMILES)	G7330A: % Effect (AMPA receptors [1]) [%]	G7330B (U): % Effect (AMPA receptors [2]; [3])	EC50 (AMPA receptors [2]; [4])	EC50 (AMPA receptors [2]; [5]) [µM]	G7330B (U): % Effect (AMPA receptors [2]; Dose 31.6 uM, individual determinations)
CC(C)S(=O)(=O)N[C@@H]1CNCC[C@H]1c1ccc(-c2ccccc2)cc1 (relative stereo) [Example 1, propane-2-sulfonic acid (trans-4-biphenyl-4-yl-piperidin-3-yl)-amide]	87.1	86.8% and 115% and 132% and 92.5% and 85.0%	16.8 µM and 11.1 µM and 12.5 µM	13.2	–
CC(C)S(=O)(=O)N[C@@H]1CN(C)CC[C@H]1c1ccc(-c2ccccc2)cc1 (relative stereo) [Example 2, propane-2-sulfonic acid (trans-4-biphenyl-4-yl-1-methyl-piperidin-3-yl)-amide]	112	127% and 141% and 134% and 142% and 151% and 173% and 180%	4.43 µM and 5.97 µM and 3.78 µM and 8.04 µM	5.32	–
CCCS(=O)(=O)N[C@@H]1CNCC[C@@H]1c1ccc(-c2ccccc2)cc1 (relative stereo) [Example 12, Propane-1-sulfonic acid(cis-4-biphenyl-4-yl-piperidin-3-yl)-amide]	0.110	0.428% and −0.204% and −0.02059% and 0.243%	–	–	–
CCS(=O)(=O)N[C@@H]1CNCC[C@@H]1c1ccc(-c2ccccc2)cc1 (relative stereo) [Example 11, Ethanesulfonic acid (cis-4-biphenyl-4-yl-piperidin-3-yl)-amide]	2.34	1.55% and 3.14% and 2.25% and 2.45%	–	–	–
CC(C)S(=O)(=O)N[C@@H]1CN(C)CC[C@@H]1c1ccc(-c2ccccc2)cc1 (relative stereo) [Example 7, propane-2-sulfonic acid (cis-4-biphenyl-4-yl-1-methyl-piperidin-3-yl)-amide]	−0.867	–	–	–	−0.0209% and −0.612% and −1.41% and −1.42%
CCCS(=O)(=O)N[C@@H]1CNCC[C@H]1c1ccc(-c2ccccc2)cc1 (relative stereo) [Example 10, Propane-1-sulfonic acid (trans-4-biphenyl-4-yl-piperidin-3-yl)-amide]	11.2	23.4% and 19.5% and 18.5% and 5.64% and 6.55% and 7.27%	> 32 µM	> 32	–
CCS(=O)(=O)N[C@@H]1CNCC[C@H]1c1ccc(-c2ccccc2)cc1 (relative stereo) [Example 9, Ethanesulfonic acid (trans-4-biphenyl-4-yl-piperidin-3-yl)-amide]	59.1	73.4% and 60.8% and 66.9%	> 32 µM	> 32	–

From patent US20100035865A1, “Sulfonamides and Pharmaceutical Compositions Thereof” (PFIZER INC, priority 2007, published 2010)
